Legend:
[1] = biological target: T1, human glucocorticoid receptor (GR) complex (Homo sapiens, UniProt P04150); assay: Glucocorticoid receptor competitive binding assay (fluorescence polarization); settings: competition with TAMRA-labeled dexamethasone; result in words only
T1 construct: made in house; host or cells: insect cells (baculovirus expression), used as crude lysate
T1 sequence (P04150 1-777): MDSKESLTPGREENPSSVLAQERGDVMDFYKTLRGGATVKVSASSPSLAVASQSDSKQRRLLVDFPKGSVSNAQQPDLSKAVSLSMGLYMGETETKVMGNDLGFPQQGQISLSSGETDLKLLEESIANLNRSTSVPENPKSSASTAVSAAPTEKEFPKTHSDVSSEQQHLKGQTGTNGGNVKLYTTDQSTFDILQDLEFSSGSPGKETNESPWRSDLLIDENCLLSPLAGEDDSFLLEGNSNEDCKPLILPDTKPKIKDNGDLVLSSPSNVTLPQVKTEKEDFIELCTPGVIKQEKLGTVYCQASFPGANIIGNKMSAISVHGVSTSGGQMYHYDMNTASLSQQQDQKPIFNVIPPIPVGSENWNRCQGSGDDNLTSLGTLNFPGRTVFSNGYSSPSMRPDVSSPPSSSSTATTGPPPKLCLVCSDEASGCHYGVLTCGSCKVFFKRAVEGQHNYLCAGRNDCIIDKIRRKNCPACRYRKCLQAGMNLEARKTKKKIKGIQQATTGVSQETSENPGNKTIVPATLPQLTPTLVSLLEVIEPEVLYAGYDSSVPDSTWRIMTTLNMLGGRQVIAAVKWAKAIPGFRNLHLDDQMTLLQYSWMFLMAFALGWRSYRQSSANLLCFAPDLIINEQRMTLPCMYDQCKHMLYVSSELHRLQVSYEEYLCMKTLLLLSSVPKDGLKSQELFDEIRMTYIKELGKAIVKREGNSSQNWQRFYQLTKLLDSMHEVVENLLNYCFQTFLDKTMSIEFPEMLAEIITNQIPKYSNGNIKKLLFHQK
Procedure: Compounds of the invention were evaluated for binding to the steroid receptor by a fluorescence polarization competitive binding assay. Detailed descriptions for preparation of recombinant glucocorticoid receptor (GR) complex used in the assay is described in U.S. Patent Application Publication No. US 2003/0017503, filed May 20, 2002, and incorporated herein by reference in its entirety. Preparation of the tetramethyl rhodamine (TAMRA)-labeled dexamethasone probe was accomplished using a standard literature procedure (M. Pons et al., J. Steroid Biochem., 1985, 22, pp. 267-273).
A. Glucocorticoid Receptor Competitive Binding Assay
The affinity of the probe for the steroid receptor was then determined in a titration experiment. The fluorescence polarization value of the probe in assay buffer was measured on an SLM-8100 fluorometer using the excitation and emission maximum values described above. Aliquots of expression vector lysate were added and fluorescence polarization was measured after each addition until no further change in polarization value was observed. Non-linear least squares regression analysis was used to calculate the dissociation constant of the probe from the polarization values obtained for lysate binding to the probe.
(§1) This assay uses fluorescence polarization (FP) to quantitate the ability of test compounds to compete with tetramethyl rhodamine (TAMRA)-labeled dexamethasone for binding to a human glucocorticoid receptor (GR) complex prepared from an insect expression system. The assay buffer was: 10 mM TES, 50 mM KCl, 20 mM Na2MoO4.2H2O, 1.5 mM EDTA, 0.04% w/v CHAPS, 10% v/v glycerol, 1 mM dithiothreitol, pH 7.4. Test compounds were dissolved to 1 mM in neat DMSO and then further diluted to 10× assay concentration in assay buffer supplemented with 10% v/v DMSO. Test compounds were serially diluted at 10× assay concentrations in 10% DMSO-containing buffer in 96-well polypropylene plates. Binding reaction mixtures were prepared in 96-well black Dynex microtiter plates by sequential addition of the following assay components to each well: 15 μL of 10× test compound solution, 85 μL of GR-containing baculovirus lysate diluted 1:170 in assay buffer, and 50 μL of 15 nM TAMRA-labeled dexamethasone. Positive controls were reaction mixtures containing no test compound; negative controls (blanks) were reaction mixtures containing 0.7 μM to 2 μM dexamethasone. The binding reactions were incubated for 1 hour at room temperature and then read for fluorescence polarization in the LJL Analyst set to 550 nm excitation and 580 nm emission, with the Rhodamine 561 dichroic mirror installed. IC50 values were determined by iterative non-linear curve fitting of the FP signal data to a 4-parameter logistic equation.

glucocorticoid receptor = assay: Glucocorticoid receptor function, one or more of the above assays (not specified which); assay type: cell-based; settings: in one or more of the above assays; result in words only
Procedure: as §1, with “Positive controls were reaction mixtures containing no test compound; negative controls (blanks) were reaction mixtures containing 0.7 μM to 2 μM dexamethasone.” left out
Dexamethasone, a synthetic ligand to the glucocorticoid receptor (GR), induces expression of aromatase in human foreskin fibroblast cells. The activity of aromatase is measured by the conversion of testosterone to estradiol in culture media.
Human foreskin fibroblast cells (ATCC Cat. No. CRL-2429, designation CCD112SK) are plated on 96 well plates at 50,000 cells per well 5 days before use, in Iscove's Modified Dulbecco's Media (GibcoBRL Life Technologies Cat No. 12440-053) supplemented with 10% charcoal filtered FBS (Clonetech Cat No. SH30068) and Gentamycin (GibcoBRL Life Technologies Cat. No. 15710-064). […] The extent of aromatase induction by test compounds is expressed as a relative percentage to dexamethasone. […]

Row | activity in the GR binding assay [1] | activity as an agonist of the glucocorticoid receptor function (glucocorticoid receptor) | SMILES
1 | potent activity |  | CC1(CC(O)(Cc2ccnc3ccccc23)C(F)(F)F)CCc2ccccc21 (stereo not drawn) [1,1,1-Trifluoro-3-(1-methylindan-1-yl)-2-quinolin-4-ylmethylpropan-2-ol]
2 | potent activity | activity as an agonist | CC1(CC(O)(Cc2cc3ccccc3[nH]2)C(F)(F)F)CCOc2ccc(F)cc21 (stereo not drawn) [1,1,1-Trifluoro-3-(6-fluoro-4-methylchroman-4-yl)-2-(1H-indol-2-ylmethyl)propan-2-ol]
3 |  | activity as an agonist | CC1(CC(O)(Cc2ccnc3ccccc23)C(F)(F)F)CCOc2ccc(F)cc21 (stereo not drawn) [1,1,1-Trifluoro-3-(6-fluoro-4-methylchroman-4-yl)-2-quinolin-4-ylmethylpropan-2-ol]
4 | potent activity |  | OC(Cc1ccnc2ccccc12)(CC1CCOc2ccc(F)cc21)C(F)(F)F (stereo not drawn) [1,1,1-Trifluoro-3-(6-fluorochroman-4-yl)-2-quinolin-4-ylmethylpropan-2-ol]
5 | potent activity |  | CC1(CC(O)(Cc2ccc(C#N)cc2Cl)C(F)(F)F)CCOc2ccc(F)cc21 (stereo not drawn) [3-Chloro-4-[3,3,3-trifluoro-2-(6-fluoro-4-methylchroman-4-ylmethyl)-2-hydroxypropyl]benzonitrile]
6 | potent activity | activity as an agonist | Cc1cc(C#N)cc2[nH]c(CC(O)(CC3(C)CCOc4ccc(F)cc43)C(F)(F)F)cc12 (stereo not drawn) [4-Methyl-2-[3,3,3-trifluoro-2-(6-fluoro-4-methylchroman-4-ylmethyl)-2-hydroxypropyl]-1H-indole-6-carbonitrile]
7 | potent activity |  | Cc1cc(C#N)cc2[nH]c(CC(O)(CC3(C)CCOc4ccc(S(C)(=O)=O)cc43)C(F)(F)F)cc12 (stereo not drawn) [4-Methyl-2-[3,3,3-trifluoro-2-hydroxy-2-(6-methanesulfonyl-4-methylchroman-4-ylmethyl)propyl]-1H-indole-6-carbonitrile]
